Test results reported in PubChem BioAssay (NCI).
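Where inhibition never reached the appropriate level, the endpoint shown equals the highest concentration tested. Otherwise, values were interpolated linearly from a five-concentration, 48-hour dose response in 96-well plates. TGI: total growth inhibition.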

Experiments:
Test in all cases: NCI tumour cell line growth inhibition, 48 h
HT29 colon = system: HT29 colon
U251 CNS = system: U251 CNS
CCRF-CEM leukemia = system: CCRF-CEM leukemia
HOP-92 NSCLC = system: HOP-92 NSCLC
NCI-H226 lung = system: NCI-H226 lung
UACC-62 melanoma = system: UACC-62 melanoma
OVCAR-5 ovarian = system: OVCAR-5 ovarian
TK-10 renal = system: TK-10 renal
HL-60(TB) leukemia = system: HL-60(TB) leukemia
A549 NSCLC = system: A549 NSCLC
RPMI-8226 leukemia = system: RPMI-8226 leukemia
RXF 393 renal = system: RXF 393 renal
DU-145 prostate = system: DU-145 prostate
SW-620 colon = system: SW-620 colon
MOLT-4 leukemia = system: MOLT-4 leukemia
NCI-H460 lung = system: NCI-H460 lung
SF-539 CNS = system: SF-539 CNS
OVCAR-3 ovarian = system: OVCAR-3 ovarian
SK-OV-3 ovarian = system: SK-OV-3 ovarian

| SMILES | TGI (HT29 colon) | TGI (U251 CNS) | TGI (CCRF-CEM leukemia) | TGI (HOP-92 NSCLC) | TGI (NCI-H226 lung) | TGI (UACC-62 melanoma) | TGI (OVCAR-5 ovarian) | TGI (TK-10 renal) | TGI (HL-60(TB) leukemia) | TGI (A549 NSCLC) | TGI (RPMI-8226 leukemia) | TGI (RXF 393 renal) | TGI (DU-145 prostate) | TGI (SW-620 colon) | TGI (MOLT-4 leukemia) | TGI (NCI-H460 lung) | TGI (SF-539 CNS) | TGI (OVCAR-3 ovarian) | TGI (SK-OV-3 ovarian) |
| --- | --- | --- | --- | --- | --- | --- | --- | --- | --- | --- | --- | --- | --- | --- | --- | --- | --- | --- | --- |
| COc1ccccc1/C=C/C1=NN(c2cccc(S(=O)(=O)O)c2)C2(C1)SCC(=O)N2c1nc2ccccc2s1 (centres undefined) | > 100 µM | > 100 µM | 90 µM | > 100 µM | > 100 µM | > 100 µM | > 100 µM | > 100 µM | > 100 µM | > 100 µM | 65.4 µM | > 100 µM | > 100 µM | > 100 µM | > 100 µM | > 100 µM | > 100 µM | – | – |
| CC(=N\N)/C(C)=N/N=C(C)/C(C)=N/N=C(C)/C(C)=N/N=C(C)/C(C)=N/N | > 100 µM | > 100 µM | > 100 µM | > 100 µM | > 100 µM | – | > 100 µM | > 100 µM | > 100 µM | > 100 µM | > 100 µM | > 100 µM | > 100 µM | > 100 µM | > 100 µM | > 100 µM | > 100 µM | > 100 µM | > 100 µM |
| Cc1ccc(-c2nc(C)c(C(=O)Nc3ccc(Cl)cc3)s2)cc1 | > 100 µM | 48.8 µM | > 100 µM | 70.2 µM | 48.5 µM | 45.8 µM | > 100 µM | 38.9 µM | > 100 µM | > 100 µM | > 100 µM | – | > 100 µM | > 100 µM | > 100 µM | > 100 µM | > 100 µM | 98.6 µM | 45.2 µM |
| CCCCCCCC1C(C)c2c([nH]c3ccccc23)C2C(=O)N(c3ccc(OC)cc3)C(=O)C21 (centres undefined) | > 7.4 µM | 3.97 µM | > 6.6 µM | > 10 µM | > 8.21 µM | > 10 µM | > 10 µM | 5.37 µM | 3.73 µM | 5.33 µM | > 10 µM | 8.14 µM | > 10 µM | > 8.94 µM | > 10 µM | 3.62 µM | > 7.09 µM | 6.71 µM | > 10 µM |
| COc1cc2c(/C=C3/C(=O)N(C)c4ccccc43)c(Cl)[nH]c2cc1C | – | 1.57 µM | > 26.8 µM | > 50.1 µM | > 100 µM | > 52.3 µM | > 57.2 µM | 5.16 µM | 0.666 µM | 17 µM | 7.79 µM | 70.5 µM | 3.44 µM | > 100 µM | 11.8 µM | 1.36 µM | 0.0807 µM | 0.929 µM | 0.629 µM |
| O=P1(C(O)/C=C/c2ccccc2)N(Cc2ccccc2)[C@H](c2ccccc2)[C@@H](c2ccccc2)N1Cc1ccccc1 (some centres undefined) | > 86.3 µM | > 100 µM | > 92.6 µM | > 68.9 µM | > 100 µM | > 100 µM | > 100 µM | > 100 µM | 36.3 µM | > 100 µM | 30.1 µM | > 100 µM | > 100 µM | > 100 µM | > 100 µM | > 79.1 µM | > 100 µM | > 93.1 µM | > 81.8 µM |
